Laboratory results reported in patent US4327097A, “Novel penicillins” (Toyama Chemical Co., Ltd., priority 1974, dated 1982).
Converted amounts (≈) assume the structure as drawn.

Tests used:
[1] = molecular target: T1, β-lactamase, Proteus vulgaris GN 76 (Proteus vulgaris, UniProt P52664); assay: Resistant activity against β-lactamase, iodometric assay; format: biochemical; settings: control Cephalorizine = 100
T1 construct: By using the supernatant of enzyme fluid; endogenous in cells; host or cells: Proteus vulgaris GN 76 (penicillin G-induced cells, sonicated, 15,000 r.p.m. supernatant)
Method: (§1) (4) Resistant activity of each cephalosporin compound against β-lactamase, Proteus vulgaris GN 76 and Escherichia freundii GN 346:
(§2) The resistant activity of each cephalosporin compound against β-lactamase was measured in the manner described below.
(§3) β-lactamase was prepared from Proteus vulgaris GN 76 and Escherichia freundii GN 346. 10 ml of an overnight culture in Heart Infusion broth was diluted with 100 ml of a medium containing 2 g of yeast extract, 10 g of polypeptone, 2 g of glucose, 7 g of disodium hydrogen phosphate, 2 g of potassium dihydrogen phosphate, 1.2 g of ammonium sulfate and 0.4 g of magnesium sulfate, per liter, and incubated with shaking at 37° C. After incubation of 2 hrs, Penicillin G (50 μg/ml) was added as the inducer, and further incubated for 2 hrs. The resulting cells were collected by centrifugation (5,000 r.p.m.×10 min.) and washed two times with 0.1 M phosphate buffer (pH 7.0). Subsequently, the cells were subjected to sonication (20 KHz, 5 min.) and then centrifuged at 15,000 r.p.m. for 60 min. By using the supernatant of enzyme fluid, the stability of each compound against β-lactamase was determined by the iodometric assay method. Each numeral shown in Table 7-2 is a relative activity value calculated by assuming as 100 the activity of the control Cephalorizine.

[2] = molecular target: β-lactamase, Escherichia freundii GN 346 (Citrobacter freundii, UniProt Q46041); assay: as above; format: biochemical; settings: control Cephalorizine = 100
Method: as §1, §2, §3

Pseudomonas aeruginosa = assay: MIC against clinical isolates; format: cell-based; settings: unit assumed
[3] = tested on: Staphylococcus aureus 209p; assay: MIC, plate method, standard strains; format: cell-based; settings: Table 4, standard strain; unit assumed
Method: (§4) The minimum inhibitory concentration (MIC) was determined by the plate method disclosed in "Chemotherapy" (Japan), Vol. 16, (1968), pages 98-99. The culture medium used was a Heart infusion agar (pH 7.4). The number of the cells per plate used in the inoculum was 10^4 (10^6 cells/ml).

[4] = tested on: Pseudomonas aeruginosa I.F.O.; assay: MIC, plate method, standard strains; format: cell-based; settings: Table 4, standard strain; unit assumed
Method: as §4

Klebsiella pneumoniae [5] = assay: MIC, plate method, standard strains; format: cell-based; settings: Table 4, standard strain; unit assumed
Method: as §4

Proteus vulgaris 3027 = assay: MIC, plate method, standard strains; format: cell-based; settings: Table 4, standard strain; unit assumed
Method: as §4

Escherichia coli NIHJ = assay: MIC, plate method, standard strains; format: cell-based; settings: Table 4, standard strain; unit assumed
Method: as §4

Klebsiella pneumoniae [6] = assay: MIC against clinical isolates; format: cell-based; settings: Table 6-4, clinical isolate; unit assumed
Escherichia coli = assay: MIC against clinical isolates; format: cell-based; settings: Table 6-2, clinical isolate; unit assumed
Staphylococcus aureus = assay: MIC against clinical isolates; format: cell-based; settings: Table 6-1, clinical isolate; unit assumed

Chain of β-lactamase, Escherichia freundii GN 346 (Q46041 entry or part of it): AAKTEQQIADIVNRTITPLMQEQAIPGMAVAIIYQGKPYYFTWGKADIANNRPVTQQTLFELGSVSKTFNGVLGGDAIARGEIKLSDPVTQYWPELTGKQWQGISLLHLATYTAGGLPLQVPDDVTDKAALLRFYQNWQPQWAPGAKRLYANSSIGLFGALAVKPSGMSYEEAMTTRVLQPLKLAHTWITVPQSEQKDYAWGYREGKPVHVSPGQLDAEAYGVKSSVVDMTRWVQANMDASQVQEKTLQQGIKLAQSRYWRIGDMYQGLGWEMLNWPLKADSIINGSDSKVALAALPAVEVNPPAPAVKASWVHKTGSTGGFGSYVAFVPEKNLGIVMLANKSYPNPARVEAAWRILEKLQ
T1 sequence (P52664 30-300): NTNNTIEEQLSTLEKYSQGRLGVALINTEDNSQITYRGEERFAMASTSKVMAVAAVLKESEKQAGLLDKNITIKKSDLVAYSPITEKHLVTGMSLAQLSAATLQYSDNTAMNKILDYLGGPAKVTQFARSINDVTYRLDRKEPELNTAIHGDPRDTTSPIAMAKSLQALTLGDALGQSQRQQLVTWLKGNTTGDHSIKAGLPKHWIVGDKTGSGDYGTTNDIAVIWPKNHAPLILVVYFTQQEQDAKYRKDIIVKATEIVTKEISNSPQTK

CN1CCN(C(=O)NC(C(=O)NC2C(=O)N3C(C(=O)O)=C(CSc4nnnn4C)CSC23)c2ccccc2)C(=O)C1=O (single isomer, unassigned) [Compound No. 63]
Relative activity (%) against β-lactamase, Pr. vulgaris GN 76 [1]: 6% | Relative activity (%) against β-lactamase, E. freundii GN 346 [2]: 0.2% | MIC Pseudomonas aeruginosa GN4 (Pseudomonas aeruginosa; Table 6-3, clinical isolate): 25 µg/mL (≈ 40.6 µM) | MIC Pseudomonas aeruginosa GN 82 (Pseudomonas aeruginosa; Table 6-3, clinical isolate): 50 µg/mL (≈ 81.2 µM) | MIC Pseudomonas aeruginosa GN 376 (Pseudomonas aeruginosa; Table 6-3, clinical isolate): 50 µg/mL (≈ 81.2 µM) | MIC Pseudomonas aeruginosa GN 2565 (Pseudomonas aeruginosa; Table 6-3, clinical isolate): 50 µg/mL (≈ 81.2 µM)

CCN1CCN(C(=O)NC(C(=O)NC2C(=O)N3C(C(=O)O)=C(CSc4nnc(C)s4)CSC23)c2ccc(O)cc2)C(=O)C1=O (single isomer, unassigned) [Compound No. 76]
Relative activity (%) against β-lactamase, Pr. vulgaris GN 76 [1]: 11% | Relative activity (%) against β-lactamase, E. freundii GN 346 [2]: 1% | MIC Staphylococcus aureus 209p [3]: 1.57 µg/mL (≈ 2.37 µM) | MIC Pseudomonas aeruginosa I.F.O. [4]: 50 µg/mL (≈ 75.6 µM) | MIC Klebsiella pneumoniae (Klebsiella pneumoniae [5]): 0.79 µg/mL (≈ 1.19 µM) | MIC Proteus vulgaris 3027 (Proteus vulgaris 3027): 3.13 µg/mL (≈ 4.73 µM) | MIC Escherichia coli NIHJ (Escherichia coli NIHJ): < 0.4 µg/mL

CCN1CCN(C(=O)NC(C(=O)NC2C(=O)N3C(C(=O)O)=C(COC(C)=O)CSC23)c2ccc(O)cc2)C(=O)C1=O (single isomer, unassigned) [Compound No. 81]
Relative activity (%) against β-lactamase, Pr. vulgaris GN 76 [1]: 6% | Relative activity (%) against β-lactamase, E. freundii GN 346 [2]: 0.4% | MIC Staphylococcus aureus 209p [3]: < 1.57 µg/mL | MIC Pseudomonas aeruginosa I.F.O. [4]: 12.5 µg/mL (≈ 21.2 µM) | MIC Klebsiella pneumoniae (Klebsiella pneumoniae [5]): < 1.57 µg/mL | MIC Proteus vulgaris 3027 (Proteus vulgaris 3027): < 1.57 µg/mL | MIC Escherichia coli NIHJ (Escherichia coli NIHJ): < 1.57 µg/mL

CCN1CCN(C(=O)NC(C(=O)NC2C(=O)N3C(C(=O)O)=C(COC(N)=O)CSC23)c2ccc(O)cc2)C(=O)C1=O (single isomer, unassigned) [Compound No. 84]
Relative activity (%) against β-lactamase, Pr. vulgaris GN 76 [1]: 10% | Relative activity (%) against β-lactamase, E. freundii GN 346 [2]: 1% | MIC Staphylococcus aureus 209p [3]: < 1.57 µg/mL | MIC Pseudomonas aeruginosa I.F.O. [4]: 25 µg/mL (≈ 42.3 µM) | MIC Klebsiella pneumoniae (Klebsiella pneumoniae [5]): < 1.57 µg/mL | MIC Proteus vulgaris 3027 (Proteus vulgaris 3027): < 1.57 µg/mL | MIC Escherichia coli NIHJ (Escherichia coli NIHJ): < 1.57 µg/mL

O=C(Cc1cccs1)N[C@@H]1C(=O)N2C(C(=O)[O-])=C(C[n+]3ccccc3)CS[C@H]12 [Cephalorizine, reference compound]
Relative activity (%) against β-lactamase, Pr. vulgaris GN 76 [1]: 100% | Relative activity (%) against β-lactamase, E. freundii GN 346 [2]: 100% | MIC Pseudomonas aeruginosa GN4 (Pseudomonas aeruginosa; Table 6-3, clinical isolate): > 200 µg/mL | MIC Pseudomonas aeruginosa GN 82 (Pseudomonas aeruginosa; Table 6-3, clinical isolate): > 200 µg/mL | MIC Pseudomonas aeruginosa GN 163 (Pseudomonas aeruginosa; Table 6-3, clinical isolate): > 200 µg/mL | MIC Pseudomonas aeruginosa GN 221 (Pseudomonas aeruginosa; Table 6-3, clinical isolate): > 200 µg/mL | MIC Pseudomonas aeruginosa GN 376 (Pseudomonas aeruginosa; Table 6-3, clinical isolate): > 200 µg/mL | MIC Pseudomonas aeruginosa GN 1035 (Pseudomonas aeruginosa; Table 6-3, clinical isolate): > 200 µg/mL | MIC Pseudomonas aeruginosa GN 1091 (Pseudomonas aeruginosa; Table 6-3, clinical isolate): > 200 µg/mL | MIC Pseudomonas aeruginosa GN 2565 (Pseudomonas aeruginosa; Table 6-3, clinical isolate): > 200 µg/mL | MIC Pseudomonas aeruginosa GN 2987 (Pseudomonas aeruginosa; Table 6-3, clinical isolate): > 200 µg/mL | MIC Pseudomonas aeruginosa S-2 (Pseudomonas aeruginosa; Table 6-4, clinical isolate): > 200 µg/mL | MIC Pseudomonas aeruginosa S-3 (Pseudomonas aeruginosa; Table 6-4, clinical isolate): > 200 µg/mL | MIC Pseudomonas aeruginosa S-4 (Pseudomonas aeruginosa; Table 6-4, clinical isolate): > 200 µg/mL

CCN1CCN(C(=O)NC(C(=O)NC2C(=O)N3C(C(=O)O)=C(CSc4nnnn4C)CSC23)c2ccccc2)C(=O)C1=O (stereo not shown) [Compound No. 69]
Relative activity (%) against β-lactamase, Pr. vulgaris GN 76 [1]: 4% | Relative activity (%) against β-lactamase, E. freundii GN 346 [2]: 0.1% | MIC Pseudomonas aeruginosa GN4 (Pseudomonas aeruginosa; Table 6-3, clinical isolate): 25 µg/mL (≈ 39.7 µM)

CC(=O)OCC1=C(C(=O)O)N2C(=O)[C@@H](NC(=O)[C@H](N)c3ccccc3)[C@H]2SC1 [Sodium Cephaloglycin, reference compound]
Relative activity (%) against β-lactamase, Pr. vulgaris GN 76 [1]: 1300% | Relative activity (%) against β-lactamase, E. freundii GN 346 [2]: 0.3% | MIC Pseudomonas aeruginosa GN4 (Pseudomonas aeruginosa; Table 6-3, clinical isolate): > 200 µg/mL | MIC Pseudomonas aeruginosa S-4 (Pseudomonas aeruginosa; Table 6-4, clinical isolate): > 200 µg/mL

CC(=O)OCC1=C(C(=O)O)N2C(=O)[C@@H](NC(=O)Cc3cccs3)[C@H]2SC1 [Sodium Cephalothin, reference compound]
Relative activity (%) against β-lactamase, Pr. vulgaris GN 76 [1]: 105% | Relative activity (%) against β-lactamase, E. freundii GN 346 [2]: 17% | MIC Pseudomonas aeruginosa GN (Pseudomonas aeruginosa; Table 6-3, clinical isolate, strain number not given): > 200 µg/mL | MIC Pseudomonas aeruginosa GN4 (Pseudomonas aeruginosa; Table 6-3, clinical isolate): > 200 µg/mL | MIC Pseudomonas aeruginosa GN 82 (Pseudomonas aeruginosa; Table 6-3, clinical isolate): > 200 µg/mL | MIC Pseudomonas aeruginosa GN 163 (Pseudomonas aeruginosa; Table 6-3, clinical isolate): > 200 µg/mL | MIC Pseudomonas aeruginosa GN 221 (Pseudomonas aeruginosa; Table 6-3, clinical isolate): > 200 µg/mL | MIC Pseudomonas aeruginosa GN 376 (Pseudomonas aeruginosa; Table 6-3, clinical isolate): > 200 µg/mL | MIC Pseudomonas aeruginosa GN 1035 (Pseudomonas aeruginosa; Table 6-3, clinical isolate): > 200 µg/mL | MIC Pseudomonas aeruginosa GN 1091 (Pseudomonas aeruginosa; Table 6-3, clinical isolate): > 200 µg/mL | MIC Pseudomonas aeruginosa GN 2565 (Pseudomonas aeruginosa; Table 6-3, clinical isolate): > 200 µg/mL | MIC Pseudomonas aeruginosa GN 2987 (Pseudomonas aeruginosa; Table 6-3, clinical isolate): > 200 µg/mL | MIC Pseudomonas aeruginosa S-1 (Pseudomonas aeruginosa; Table 6-4, clinical isolate): > 200 µg/mL | MIC Pseudomonas aeruginosa S-2 (Pseudomonas aeruginosa; Table 6-4, clinical isolate): > 200 µg/mL | MIC Pseudomonas aeruginosa S-3 (Pseudomonas aeruginosa; Table 6-4, clinical isolate): > 200 µg/mL | MIC Pseudomonas aeruginosa S-4 (Pseudomonas aeruginosa; Table 6-4, clinical isolate): > 200 µg/mL | MIC Klebsiella pneumoniae GN 917 (Klebsiella pneumoniae [6]): 3.13 µg/mL | MIC Klebsiella pneumoniae GN 4081 (Klebsiella pneumoniae [6]): 12.5 µg/mL | MIC Klebsiella pneumoniae GN 4117 (Klebsiella pneumoniae [6]): 6.25 µg/mL | MIC Escherichia coli GN 3435 (Escherichia coli): 6.25 µg/mL | MIC Escherichia coli GN 3452 (Escherichia coli): 12.5 µg/mL | MIC Escherichia coli GN 3481 (Escherichia coli): 12.5 µg/mL | MIC Escherichia coli K-1 (Escherichia coli): 6.25 µg/mL | MIC Escherichia coli K-2 (Escherichia coli): 6.25 µg/mL | MIC Staphylococcus aureus F-1 (Staphylococcus aureus): < 0.4 µg/mL | MIC Staphylococcus aureus F-2 (Staphylococcus aureus): < 0.4 µg/mL | MIC Staphylococcus aureus F-3 (Staphylococcus aureus): < 0.4 µg/mL | MIC Staphylococcus aureus F-4 (Staphylococcus aureus): < 0.4 µg/mL | MIC Staphylococcus aureus F-5 (Staphylococcus aureus): 1.56 µg/mL | MIC Staphylococcus aureus MS 8588 (Staphylococcus aureus): < 0.4 µg/mL | MIC Staphylococcus aureus MS 8596 (Staphylococcus aureus): < 0.4 µg/mL | MIC Staphylococcus aureus MS 8619 (Staphylococcus aureus): < 0.4 µg/mL | MIC Staphylococcus aureus MS 8684 (Staphylococcus aureus): < 0.4 µg/mL | MIC Staphylococcus aureus MS 8713 (Staphylococcus aureus): < 0.4 µg/mL
